{
  "source": "patent US20030104946A1",
  "about": "“Herbicidal mixture comprising a benzoyl derivative, a fertilizer containing nitrogen and an adjuvant” (priority 2001, published 2003)",
  "key": {"[1]": {"system": "ORYSP (Transplanted Paddy Rice)", "assay": "Effect on weeds in rice by water application (Example 3)", "type": "in vivo", "conditions": "mixtures of Table 4", "source_text": "Seeds of the various weed species and rice were planted in a sandy-loamy soil in a greenhouse under good growth conditions. Three weeks after sowing the tank mixture containing the formulated test compound was applied to the plants submerged in the paddy water. The plants were visually assessed three weeks after application, and the percentage control of the plants is-shown in Table 4 in comparison with untreated controls."}, "ZEAMA (Maize)": {"system": "ZEAMA (Maize)", "assay": "Weed control postemergence in maize under field conditions, outdoor pot trial (Example 4)", "type": "in vivo", "conditions": "Tables 5 and 6", "source_text": "Seeds of various crop and weed species were planted in a sandy-loamy soil and placed in a climate chamber in a greenhouse under good growth conditions. Four weeks after sowing, the plants were sprayed with a tank mixture containing the formulated test compound at a spray rate of 300 l/ha of spray solution. The plants were visually assessed fourteen days after application, and the percentage control of the plants is shown in Tables 1 and 2.\nUsing the method of Example 1 but in an outdoor pot trial in the field there were obtained the following results shown in Tables 5, 6 and 7. […]"}},
  "data": [
    {"molecule": "CCS(=O)(=O)c1ccc(C(=O)C2C(=O)CCCC2=O)c(Cl)c1C1=NOC(CC#N)C1", "note": "(centres unmarked) [B2, 2-[2-chloro-3-(5-cyanomethylisoxazolin-3-yl)-4-ethylsulfonylbenzoyl]cyclohexane-1,3-dione]", "values": [
      {"measurement": "rice damage", "setting": "[1]", "result": "No rice damage was observed"},
      {"measurement": "maize damage", "setting": "ZEAMA (Maize)", "result": "No maize damage was observed"}
    ]}
  ]
}
